Assay results reported in PubChem BioAssay AID330 (DTP/NCI, 2004).
Values joined by “and” are separate entries in the source; they are usually repeats but may differ in a detail not shown here. Equal values may be shown once. Toxic doses and inconclusive results are not listed. The calls were made as follows: active = survival T/C of 150% or more; inactive = T/C below 125% in these data.

System: P388 leukemia ip, CD2F1 mice, survival T/C
Experiment: NCI In Vivo Anticancer Drug Screen. Data for tumor model P388 Leukemia (intraperitoneal) in CD2F1 (CDF1) mice
Settings: endpoint: median survival time, higher = longer survival
Method in brief: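 Mice carrying the transplanted tumor received test compound or vehicle. Survival was recorded in each group, and the value is the treated-group measurement divided by that of the vehicle-treated control group.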

[1] = dose: 100.0 mg/kg/injection, schedule: Q04DX002 (ip), vehicle: Klucel (hydroxypropylcellulose) (HPC)
[2] = dose: 200.0 mg/kg/injection, schedule: Q04DX002 (ip), vehicle: Klucel (hydroxypropylcellulose) (HPC)
[3] = dose: 50.0 mg/kg/injection, schedule: Q01DX005 (ip), vehicle: Klucel (hydroxypropylcellulose) (HPC)
[4] = dose: 100.0 mg/kg/injection, schedule: Q01DX005 (ip), vehicle: Klucel (hydroxypropylcellulose) (HPC)
[5] = dose: 12.5 mg/kg/injection, schedule: Q01DX009 (ip), vehicle: Klucel (hydroxypropylcellulose) (HPC)
[6] = dose: 25.0 mg/kg/injection, schedule: Q01DX009 (ip), vehicle: Klucel (hydroxypropylcellulose) (HPC)
[7] = dose: 100.0 mg/kg/injection, schedule: Q01DX009 (ip), vehicle: Klucel (hydroxypropylcellulose) (HPC)
[8] = dose: 200.0 mg/kg/injection, schedule: Q01DX009 (ip), vehicle: Klucel (hydroxypropylcellulose) (HPC)
[9] = dose: 100.0 mg/kg/injection, schedule: Q01DX001 (ip), vehicle: saline with Tween-80
[10] = dose: 60.0 mg/kg/injection, schedule: Q01DX005 (ip), vehicle: saline with Tween-80
[11] = dose: 120.0 mg/kg/injection, schedule: Q01DX005 (ip), vehicle: saline with Tween-80
[12] = dose: 50.0 mg/kg/injection, schedule: Q01DX005 (ip), vehicle: saline with Tween-80
[13] = dose: 100.0 mg/kg/injection, schedule: Q01DX005 (ip), vehicle: saline with Tween-80
[14] = dose: 200.0 mg/kg/injection, schedule: Q01DX005 (ip), vehicle: saline with Tween-80
[15] = dose: 6.25 mg/kg/injection, schedule: Q01DX009 (ip), vehicle: saline
[16] = dose: 12.5 mg/kg/injection, schedule: Q01DX009 (ip), vehicle: saline
[17] = dose: 100.0 mg/kg/injection, schedule: Q04DX002 (ip), vehicle: saline
[18] = dose: 200.0 mg/kg/injection, schedule: Q04DX002 (ip), vehicle: saline
[19] = dose: 400.0 mg/kg/injection, schedule: Q04DX002 (ip), vehicle: saline

Measured: T/C

COc1ccc2c(c1)[C@@]13CCCC[C@H]1[C@@H](C2)N(C)CC3(C)O (stereo partly specified)
inactive: [1] 97 % of control | [2] 105 % of control

O=C(O)CN=C1C=CC(=NCC(=O)O)C=C1
inactive: [3] 109 % of control | [4] 108 % of control

Cn1c(N)c(C(=O)/C=C/c2ccccc2)c(=O)n(C)c1=O
inactive: [5] 99 % of control and 124 % of control | [6] 120 % of control and 93 % of control | [7] 93 % of control and 113 % of control and 92 % of control | [8] 116 % of control

CC1(C)CCCC2(C)C1CCC1(C)OC3=CC(=O)C(O)=CC3=CC12 (stereo unspecified)
inactive: dose: 6.25 mg/kg/injection, schedule: Q01DX009 (ip), vehicle: Klucel (hydroxypropylcellulose) (HPC) 100 % of control | [5] 112 % of control | [6] 119 % of control

CCC1(N(C)C)C(=O)NC(=O)N(C2CCCCC2)C1=O (stereo unspecified)
inactive: dose: 60.0 mg/kg/injection, schedule: Q01DX005 (ip), vehicle: Klucel (hydroxypropylcellulose) (HPC) 98 % of control | dose: 120.0 mg/kg/injection, schedule: Q01DX005 (ip), vehicle: Klucel (hydroxypropylcellulose) (HPC) 96 % of control | dose: 240.0 mg/kg/injection, schedule: Q01DX005 (ip), vehicle: Klucel (hydroxypropylcellulose) (HPC) 91 % of control

COC(=O)C1([Se]c2ccccc2)CCN2CCC(OCc3ccccc3[N+](=O)[O-])C21 (stereo unspecified)
inactive: dose: 25.0 mg/kg/injection, schedule: Q01DX001 (ip), vehicle: saline with Tween-80 90 % of control | dose: 50.0 mg/kg/injection, schedule: Q01DX001 (ip), vehicle: saline with Tween-80 105 % of control | [9] 108 % of control and 89 % of control

CC(C)=Cc1cc(-c2cc(C=C(C)C)on2)no1
inactive: dose: 60.0 mg/kg/injection, schedule: Q01DX005 (ip), vehicle: saline 100 % of control | dose: 120.0 mg/kg/injection, schedule: Q01DX005 (ip), vehicle: saline 104 % of control | dose: 240.0 mg/kg/injection, schedule: Q01DX005 (ip), vehicle: saline 100 % of control

CC(=O)Oc1ccccc1C(=O)OC1CCN(C(C)C)C1 (stereo unspecified)
inactive: dose: 100.0 mg/kg/injection, schedule: Q04DX003 (ip), vehicle: saline 100 % of control | dose: 200.0 mg/kg/injection, schedule: Q04DX003 (ip), vehicle: saline 95 % of control

c1ccc(Cc2nnc3n2CCC(c2ccccc2)S3)cc1 (stereo unspecified)
inactive: [10] 102 % of control | [11] 99 % of control | dose: 240.0 mg/kg/injection, schedule: Q01DX005 (ip), vehicle: saline with Tween-80 95 % of control

CCN(CC)CCNC(=O)C(=O)NCCN(CC)CC
inactive: dose: 50.0 mg/kg/injection, schedule: Q01DX005 (ip), vehicle: saline 97 % of control | dose: 100.0 mg/kg/injection, schedule: Q01DX005 (ip), vehicle: saline 99 % of control

CN1C(=O)C(C)(C)CN(c2ccccc2)C1=S
inactive: [12] 100 % of control | [13] 108 % of control | [14] 103 % of control

CCCN1C(=O)CC(NC(C)=O)C1=O (stereo unspecified)
inactive: [12] 107 % of control | [13] 107 % of control | [14] 107 % of control

CCCCNc1ccc(C(=O)OC2CCN(C)CC2)c(Cl)c1
inactive: dose: 0.79 mg/kg/injection, schedule: Q01DX009 (ip), vehicle: saline with Tween-80 111 % of control and 119 % of control and 97 % of control | dose: 1.56 mg/kg/injection, schedule: Q01DX009 (ip), vehicle: saline with Tween-80 106 % of control and 119 % of control | dose: 12.5 mg/kg/injection, schedule: Q01DX009 (ip), vehicle: saline with Tween-80 107 % of control

N#C/C(=C\Nc1ccccn1)C(=O)c1ccco1
inactive: [10] 91 % of control | [11] 100 % of control

CC(C)=CCC/C(C)=C\CN(C)C
inactive: dose: 6.25 mg/kg/injection, schedule: Q04DX002 (ip), vehicle: saline with Tween-80 100 % of control | dose: 12.5 mg/kg/injection, schedule: Q04DX002 (ip), vehicle: saline with Tween-80 103 % of control | dose: 25.0 mg/kg/injection, schedule: Q04DX002 (ip), vehicle: saline with Tween-80 94 % of control

CCOC(=O)C(=O)Nc1ccc2cc(OC)ccc2c1C#N
inactive: [15] 94 % of control | [16] 94 % of control | dose: 25.0 mg/kg/injection, schedule: Q01DX009 (ip), vehicle: saline 91 % of control | dose: 50.0 mg/kg/injection, schedule: Q01DX009 (ip), vehicle: saline 99 % of control | dose: 100.0 mg/kg/injection, schedule: Q01DX009 (ip), vehicle: saline 106 % of control | dose: 200.0 mg/kg/injection, schedule: Q01DX009 (ip), vehicle: saline 106 % of control

CCOC(=O)c1cc2ccccc2c(-c2ccccc2)c1C(=O)OCC
inactive: [9] 97 % of control | dose: 200.0 mg/kg/injection, schedule: Q01DX001 (ip), vehicle: saline with Tween-80 96 % of control | dose: 400.0 mg/kg/injection, schedule: Q01DX001 (ip), vehicle: saline with Tween-80 90 % of control

COc1cc(C(N)CCc2ccc3c(c2)OCO3)cc(OC)c1OC (stereo unspecified)
inactive: [3] 110 % of control | [4] 98 % of control

COC1C(O[C@@H]2c3c(cc4c(c3O)C(=O)c3c(O)cccc3C4=O)C(=O)C(C)(O)C2OC)OC(C)C(O)C1O (stereo partly specified)
inactive: dose: 6.25 mg/kg/injection, schedule: Q04DX003 (ip), vehicle: Klucel (hydroxypropylcellulose) (HPC) 102 % of control | dose: 12.5 mg/kg/injection, schedule: Q04DX003 (ip), vehicle: Klucel (hydroxypropylcellulose) (HPC) 101 % of control | dose: 25.0 mg/kg/injection, schedule: Q04DX003 (ip), vehicle: Klucel (hydroxypropylcellulose) (HPC) 106 % of control | dose: 50.0 mg/kg/injection, schedule: Q04DX003 (ip), vehicle: Klucel (hydroxypropylcellulose) (HPC) 101 % of control and 104 % of control | dose: 100.0 mg/kg/injection, schedule: Q04DX003 (ip), vehicle: Klucel (hydroxypropylcellulose) (HPC) 104 % of control | dose: 200.0 mg/kg/injection, schedule: Q04DX003 (ip), vehicle: Klucel (hydroxypropylcellulose) (HPC) 121 % of control

COC1=CC(=O)C(CCC(C)=O)=CC1=O
inactive: dose: 3.75 mg/kg/injection, schedule: Q01DX005 (ip), vehicle: Klucel (hydroxypropylcellulose) (HPC) 99 % of control | dose: 7.5 mg/kg/injection, schedule: Q01DX005 (ip), vehicle: Klucel (hydroxypropylcellulose) (HPC) 98 % of control | dose: 15.0 mg/kg/injection, schedule: Q01DX005 (ip), vehicle: Klucel (hydroxypropylcellulose) (HPC) 94 % of control

OCC(O)C(O)C(O)C(O)CO (stereo unspecified)
inactive: dose: 400.0 mg/kg/injection, schedule: Q01DX009 (ip), vehicle: saline 107 % of control | dose: 1200.0 mg/kg/injection, schedule: Q01DX009 (ip), vehicle: saline 110 % of control | dose: 1600.0 mg/kg/injection, schedule: Q01DX005 (ip), vehicle: saline 106 % of control | dose: 2400.0 mg/kg/injection, schedule: Q01DX005 (ip), vehicle: saline 104 % of control

COc1ccc(S(=O)(=O)N/N=C/c2cccc([N+](=O)[O-])c2O)cc1
inactive: [12] 100 % of control | [13] 100 % of control | [14] 95 % of control

Cc1[nH]n(-c2ccccc2)c(=O)c1N=Nc1cccc(C(F)(F)F)c1
inactive: [17] 92 % of control | [18] 99 % of control | [19] 100 % of control

O=C(CC1(O)C(=O)Nc2ccccc21)c1ccc(Br)cc1 (stereo unspecified)
inactive: [12] 108 % of control | [13] 103 % of control | [14] 100 % of control

C[N+](C)(C)CCC(=O)c1ccc(Cl)c(Cl)c1
inactive: dose: 3.13 mg/kg/injection, schedule: Q01DX009 (ip), vehicle: saline 108 % of control | [15] 112 % of control | [16] 108 % of control

CCc1nc2ccccc2c(=O)n1C(C)C
inactive: [17] 100 % of control | [18] 106 % of control | [19] 104 % of control

CC(=O)NNC(=O)Nc1ccc(Cl)c(Cl)c1
inactive: dose: 50.0 mg/kg/injection, schedule: Q01DX009 (ip), vehicle: Klucel (hydroxypropylcellulose) (HPC) 108 % of control | [7] 103 % of control | [8] 91 % of control

CCOC(=O)C1C(c2ccc(C)cc2)C(C#N)C(=O)NC1(O)c1ccccc1 (stereo unspecified)
inactive: [1] 99 % of control | [2] 95 % of control | dose: 400.0 mg/kg/injection, schedule: Q04DX002 (ip), vehicle: Klucel (hydroxypropylcellulose) (HPC) 98 % of control
